Laboratory results taken from patent US20040142851A1, “Hydrazinopeptoids and their uses for treating cancers” (priority 2001, published 2004).
Square brackets hold non-standard residues; d marks the D form. Peptide text beside a SMILES is read from it. Nle = CCCC[C@H](N)C(=O)O

Experiments:
[1] = molecular target: purified proteasome (chymotrypsin activity) (Homo sapiens, UniProt P28074); assay: Inhibition of the chymotrypsin catalytic activity of the purified proteasome; assay type: biochemical; conditions: 1 mM compound
Source text: In vitro analyses of the inhibitory potentialities of the Hydrazinoazapeptoids synthesized vis-à-vis the enzyme activities of the proteasome.
The inhibitory potentialities of the hydrazinoazapeptoids have been quantified with respect to the chymotrypsin enzyme activities of the purified proteasome. The results are expressed as percentages of activity inhibition.
Measurement of the inhibitory properties of the synthesized compounds on the chymotrypsin catalytic activity of the purified proteasome.

[2] = tested on: XL2 cells; assay: FACS analysis, % of cells blocked in G2/M in XL2 cell cultures; assay type: cell-based, Xenopus
Experimental: The molecules synthesized were tested in vitro on the proteolytic activities described of the proteasome, then in vivo on Xenopus (XL2) cell cultures. Knowledge of the cell cycle of XL2 cells has made it possible to carry out synchronization experiments and also to evaluate the duration of each of the phases of the cycle. […]

[3] = tested on: XL2 cells; assay: Fluorescence microscopy analysis of the stages of mitosis; assay type: cell-based, Xenopus; conditions: 50 cells blocked in mitosis
Experimental: The molecules synthesized were tested in vitro on the proteolytic activities described of the proteasome, then in vivo on Xenopus (XL2) cell cultures. Knowledge of the cell cycle of XL2 cells has made it possible to carry out synchronization experiments and also to evaluate the duration of each of the phases of the cycle.
Observation of the nuclear content makes it possible to determine the different stages of the mitosis. The following results were obtained using 50 cells blocked in mitosis. The first 7 inhibitors were studied using fluorescence microscopy.

[4] = tested on: cell cycle progression (mitosis); conditions: lower concentrations only slow down the mitosis; cited from earlier work

CCCC[C@@H](C=O)NC(=O)[C@H](CC(C)C)NC(=O)[C@H](CC(C)C)NC(C)=O [ALLN, N-acetyl-leucinyl-leucinyl-norleucinal, reference compound] (Ac-Leu-Leu-[Nle]-aldehyde)
% inhibition of chymotrypsin activity of the purified proteasome [1]: 91%
inhibition at 1000 µM [1]: 90%
% of cells blocked in G2/M ([2]; 100 μM, 7 h): 53%
concentration in the medium necessary to obtain a blockage in mitosis ([2]; XL2 cell cultures): 100 µM
% Anaphase + Telophase [3]: 3%
% Metaphase [3]: 83%
% Prophase [3]: 15%
concentration producing an extended stop in mitosis [4]: > 50 µg/mL
